Test [1] addresses T1, Parathyroid hormone/parathyroid hormone-related peptide receptor (Homo sapiens, UniProt Q03431).
T1 sequence (Q03431 whole entry): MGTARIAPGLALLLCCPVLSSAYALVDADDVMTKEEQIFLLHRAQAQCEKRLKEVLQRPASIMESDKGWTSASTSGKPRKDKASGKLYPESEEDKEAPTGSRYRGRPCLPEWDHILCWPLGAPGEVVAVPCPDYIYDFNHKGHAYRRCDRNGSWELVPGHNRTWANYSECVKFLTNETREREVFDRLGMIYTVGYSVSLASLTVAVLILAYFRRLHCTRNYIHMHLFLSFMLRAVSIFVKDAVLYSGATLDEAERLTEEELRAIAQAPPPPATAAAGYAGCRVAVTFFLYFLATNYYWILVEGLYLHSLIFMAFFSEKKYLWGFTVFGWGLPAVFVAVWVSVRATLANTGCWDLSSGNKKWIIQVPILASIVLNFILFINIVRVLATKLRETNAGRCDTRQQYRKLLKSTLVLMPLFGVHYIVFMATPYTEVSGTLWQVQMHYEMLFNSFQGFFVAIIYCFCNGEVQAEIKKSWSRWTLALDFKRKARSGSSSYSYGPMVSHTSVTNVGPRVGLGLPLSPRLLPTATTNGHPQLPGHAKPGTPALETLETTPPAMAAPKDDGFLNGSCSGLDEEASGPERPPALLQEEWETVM
The test is described as follows: Displacement of [125I]-[Nle,8,18 Tyr34]-hPTH(1-34) from human recombinant PTH1R expressed in HEK293 cells. In kind it is cell-based. (In a radioligand displacement assay an active substance lowers the binding of a labelled ligand.)

The species entered for test [2] is Homo sapiens. Kind of test: Selectivity for human recombinant PTH1 receptor over human recombinant PTH2 receptor.
Test [3] has as its target T2, Parathyroid hormone/parathyroid hormone-related peptide receptor (Homo sapiens) (UniProt Q03431).
T2 sequence (whole entry): T1 sequence (Q03431 whole entry)
Kind of test: Antagonist activity at human wild type PTH1 receptor expressed in SaOS2 cells assessed as inhibition of PTHrP (1-34)-stimulated cAMP production. In kind it is functional, cell-based. The note with it: SAOS-2. On the technique in general: Cyclic AMP is a second messenger, typically raised through Gs and lowered through Gi signalling.

The target in test [4] is Parathyroid hormone 2 receptor (Homo sapiens) (UniProt P49190). The test is described as follows: Antagonist activity at human recombinant PTH2 receptor expressed in CHOK1 cells assessed as inhibition of TIP (1-39)-stimulated cAMP production at 10 uM. The note with it: read-out: pA2 (converted).
Chain of Parathyroid hormone 2 receptor (Homo sapiens) (P49190 whole entry, looked up): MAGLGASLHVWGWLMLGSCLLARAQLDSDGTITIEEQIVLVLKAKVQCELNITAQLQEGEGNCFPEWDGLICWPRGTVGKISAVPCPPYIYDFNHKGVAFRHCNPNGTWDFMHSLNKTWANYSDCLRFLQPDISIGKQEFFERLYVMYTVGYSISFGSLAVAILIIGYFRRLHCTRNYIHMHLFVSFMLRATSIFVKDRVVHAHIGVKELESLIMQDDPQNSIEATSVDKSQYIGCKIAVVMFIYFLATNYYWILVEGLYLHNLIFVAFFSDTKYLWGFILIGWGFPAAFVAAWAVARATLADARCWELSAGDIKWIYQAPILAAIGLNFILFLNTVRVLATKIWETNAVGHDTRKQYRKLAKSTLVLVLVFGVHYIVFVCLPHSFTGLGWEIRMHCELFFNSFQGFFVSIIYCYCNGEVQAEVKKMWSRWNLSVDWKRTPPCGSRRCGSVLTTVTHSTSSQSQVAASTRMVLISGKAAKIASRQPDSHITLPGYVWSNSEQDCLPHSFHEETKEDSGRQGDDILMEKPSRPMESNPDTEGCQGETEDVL
Test [5] has as its target T3, Parathyroid hormone/parathyroid hormone-related peptide receptor (Mus musculus, UniProt P41593).
T3 sequence (P41593 whole entry): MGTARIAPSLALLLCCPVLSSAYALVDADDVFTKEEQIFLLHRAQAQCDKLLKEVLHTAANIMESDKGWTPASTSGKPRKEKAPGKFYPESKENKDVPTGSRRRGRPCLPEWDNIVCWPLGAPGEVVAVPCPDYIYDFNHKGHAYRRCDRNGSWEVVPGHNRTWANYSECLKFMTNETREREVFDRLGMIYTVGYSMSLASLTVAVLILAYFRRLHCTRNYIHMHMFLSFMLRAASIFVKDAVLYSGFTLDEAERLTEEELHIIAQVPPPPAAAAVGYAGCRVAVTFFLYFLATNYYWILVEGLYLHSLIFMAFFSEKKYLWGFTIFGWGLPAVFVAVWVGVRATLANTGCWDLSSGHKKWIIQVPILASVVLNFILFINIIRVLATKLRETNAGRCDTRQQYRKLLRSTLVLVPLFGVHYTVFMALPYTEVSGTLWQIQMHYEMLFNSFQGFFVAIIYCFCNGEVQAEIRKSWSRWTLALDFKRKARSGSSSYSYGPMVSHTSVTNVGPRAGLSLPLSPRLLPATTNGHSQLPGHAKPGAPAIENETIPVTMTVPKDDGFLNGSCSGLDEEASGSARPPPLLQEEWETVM
The test is described as follows: Antagonist activity at mouse wild type PTH1 receptor expressed in MC3T3E1 cells assessed as inhibition of PTHrP (1-34)-stimulated cAMP production at 3 uM. In kind it is functional, cell-based. The note with it: read-out: pA2 (converted).

Test [6] addresses T1, Parathyroid hormone/parathyroid hormone-related peptide receptor. Kind of test: Antagonist activity at human recombinant PTH1 receptor expressed in HEK293 cells assessed as inhibition of PTH(1-34)-stimulated cAMP production. The following applies: read-out: pA2 (converted). In kind it is functional, cell-based.
For test [7] the target is unchanged. The test is described as follows: Antagonist activity at human wild type PTH1 receptor expressed in SaOS2 cells assessed as inhibition of PTHrP (1-34)-stimulated cAMP production at 3 uM. Format: functional, cell-based, SAOS-2. The note with it: read-out: pA2 (converted).
For test [8], the target named is T2, Parathyroid hormone/parathyroid hormone-related peptide receptor (Homo sapiens). The test is described as follows: Displacement of [125I]-[Nle,8,18 Tyr34]-hPTH(1-34) from human recombinant PTH1R expressed in HEK293 cells at 1 uM. Format: cell-based.
The target is the same in test [9]. Kind of test: Displacement of [125I]-[Nle,8,18 Tyr34]-hPTH(1-34) from human recombinant PTH1R expressed in HEK293 cells at 10 uM. In kind it is cell-based.

In general, Ki refers to a dissociation constant, usually derived from enzyme kinetics or from competition with a known ligand. Broadly, the pKb is −log10 of the Kb, conventionally taken in molar units. As usually defined, the inhibition is the drop in the measured response relative to a control, in per cent.

Structures are written as SMILES. Some results are limits rather than exact numbers.

For the compound `Cc1ccc2c(c1)N(c1ccc(NC3=NCCN3)cc1)C(=O)N(Cc1ccccc1)N=C2C1CCCCC1`, the Ki in test [1] is 70.8 nM.

Take `Cc1ccc2c(c1)N(c1ccc(NCCc3ncc[nH]3)cc1)C(=O)N(C)N=C2C1CCCCC1`: in test [2], the Selectivity ratio worked out at 100. Also, the pKb in [3] was determined as 7.55. Moreover, the Kb in test [4] is 2880 nM; in [5], 513 nM; in test [6], 17 nM; in test [7], 19.5 nM. Further, the Ki in test [1] is 13.2 nM.

As to `CCCN1N=C(C2CCCCC2)c2ccc(C)cc2N(c2ccc(NCCc3ncc[nH]3)cc2)C1=O`, in [1], the Ki is 6.76 nM.

Regarding `Nc1ccc(N2C(=O)N(Cc3ccccc3)N=C(C3CCCCC3)c3ccccc32)cc1`, the inhibition in [8] was 39%.

Take `Cc1ccc2c(c1)N(c1ccc(NCCc3ncc[nH]3)cc1)C(=O)N(C1CCOCC1)N=C2C1CCCCC1`: the Ki in test [1] is 6.61 nM.

On to `O=C1N(Cc2ccccc2)N=C(C2CCCCC2)c2ccccc2N1c1ccc(NC2=NCCN2)cc1`, for which, in [1], the Ki was 288 nM.

For `Cc1ccc2c(c1)N(c1ccc(NC(=O)C(N)C(C)C)cc1)C(=O)N(Cc1ccccc1)N=C2C1CCCCC1` (stereo not given), in [1], the Ki was 112 nM.

Take `N=C(N)Nc1ccc(N2C(=O)N(Cc3ccccc3)N=C(C3CCCCC3)c3ccccc32)cc1`: the Ki in test [1] was 708 nM.

Consider `O=C(O)c1ccc(N2C(=O)N(Cc3ccccc3)N=C(C3CCCCC3)c3ccccc32)cc1`, for which the Ki in [1] was above 100000 nM.

Regarding `Cc1ccc2c(c1)N(c1ccc(NCCc3ncc[nH]3)cc1)C(=O)N(C1CCc3ccccc3CC1)N=C2C1CCOCC1`, in test [1], the Ki is 6.76 nM.

Take `Cc1ccc2c(c1)N(c1ccc(NCCCc3ncc[nH]3)cc1)C(=O)N(C)N=C2C1CCCCC1`: in [1], the Ki is 20.4 nM.

`Cc1ccc2c(c1)N(c1ccc(NCc3ncc[nH]3)cc1)C(=O)N(C)N=C2C1CCCCC1`: in test [1], the Ki is 50.1 nM.

For `CC(C)C1=NN(Cc2ccccc2)C(=O)N(c2ccc(NC(=N)N)cc2)c2ccccc21`, the inhibition in test [9] amounted to 43%.

In the case of `N=C(N)Nc1cccc(N2C(=O)N(Cc3ccccc3)N=C(C3CCCCC3)c3ccccc32)c1`, in test [1], the Ki is 2820 nM.

Regarding `Cc1ccc2c(c1)N(c1ccc(NCCc3ncc[nH]3)cc1)C(=O)N(C1COc3ccccc3OC1)N=C2C1CCCCC1`, in test [1], the Ki is 8.71 nM.

Regarding `CC(C)C(N)C(=O)Nc1ccc(N2C(=O)N(Cc3ccccc3)N=C(C3CCCCC3)c3ccccc32)cc1` (stereo not given), in test [1], the Ki was 380 nM.

For the compound `Cc1cc2c(cc1NCc1ccccc1)C(C1CCCCC1)=NN(C)C(=O)N2c1ccc(NCCc2ncc[nH]2)cc1`, the Ki in [1] was 1.45 nM.

Regarding `N=C(N)Nc1ccc(CN2C(=O)N(Cc3ccccc3)N=C(C3CCCCC3)c3ccccc32)cc1`, the Ki in test [1] is 933 nM.

Consider `Cc1ccc2c(c1)N(c1ccc(NCCc3ncc[nH]3)cc1)C(=O)N(Cc1ccccc1)N=C2C1CCCCC1`, for which, in test [1], the inhibition constant (Ki) was 3.8 nM.

Turning to `N=C(N)Nc1ccc(N2C(=O)N(Cc3ccccc3)N=C(c3ccccc3)c3ccccc32)cc1`, in [1], the Ki is 3390 nM.

As for `Cc1ccc2c(c1)N(c1ccc(NCCc3ncc[nH]3)cc1)C(=O)N(C(C)C)N=C2C1CCCCC1`, the inhibitory constant (Ki) in test [1] is 3.55 nM.

Consider `NCC(=O)Nc1ccc(N2C(=O)N(Cc3ccccc3)N=C(C3CCCCC3)c3ccccc32)cc1`, for which the Ki in test [1] was 676 nM.

For `Cc1ccc2c(c1)N(c1ccc(NC(=N)N)cc1)C(=O)N(Cc1ccccc1)N=C2C1CCCCC1`, in test [1], the Ki is 155 nM.

With `N=C(N)Nc1ccc(N2C(=O)N(Cc3ccccc3)N=C(CN3CCCCC3)c3ccccc32)cc1`, in [9], the inhibition is 27%.

On to `Cc1ccc2c(c1)N(c1ccc(NCCc3ncc[nH]3)cc1)C(=O)N(C1CCc3ccccc3CC1)N=C2C1CCCCC1`, for which, in test [1], the Ki is 0.912 nM.

With `Cc1ccc2c(c1)N(c1ccc(NCCc3ncc[nH]3)cc1)C(=O)N(C)N=C2C1CCOCC1`, the Ki in test [1] is 617 nM.

In the case of `N=C(N)Nc1ccc(N2C(=O)N(Cc3ccccc3)N=C(CC3CCCCC3)c3ccccc32)cc1`, the Ki in [1] was 562 nM.

Turning to `Cc1cc2c(cc1OCc1ccccc1)C(C1CCCCC1)=NN(C)C(=O)N2c1ccc(NCCc2ncc[nH]2)cc1`, the Ki in test [1] was 1.82 nM.

As to `COCCN1N=C(C2CCCCC2)c2ccc(C)cc2N(c2ccc(NCCc3ncc[nH]3)cc2)C1=O`, the Ki in test [1] was 83.2 nM.

(Values after ChEMBL document CHEMBL1148813, “Discovery and characterization of novel, potent, non-peptide parathyroid hormone-1 receptor antagonists” (J Med Chem, 2007).)
